# Results taken from patent US20230357856A1, “METHODS AND COMPOSITIONS FOR PROGNOSING GLIOBLASTOMA OR BREAST CANCER” (The Johns Hopkins University, priority 2020, published 2023).
# Entries after “also recorded” stand apart in the source; their conditions may differ.
# Test system: metastatic MDA-MB-231 breast cancer cells
# Assay: Microfluidic Assay for Quantification of Cell Invasion (MAqCI), migration of breast cancer cells
# Format: cell-based
# Conditions: 5 µM, 13 hours post administration, MDA-MB-231 cells, compared to vincristine (VC); FIG. 24
smiles,measurement,value
Fc1ccc([C@@H]2CCNC[C@H]2COc2ccc3c(c2)OCO3)cc1 [paroxetine],percentage of migratory cells in MAqCI,down to the levels of non-metastatic cells; also recorded: decreases the percent of migratory cells to the level of non-metastatic cells
